Measured values as given in patent US20260317319A1, “NOVEL ERGOLINES AND METHODS OF TREATING MOOD DISORDERS” (Gilgamesh Pharma Inc., priority 2023, published 2026).
Read-outs that look alike come from different tables or passages of the source.

What was measured:
5-HT2A receptor [1] = target: T1, 5-HT2A receptor (Homo sapiens, UniProt P28223); assay: cell-based; type: cell-based; details: beta-arrestin recruitment; for Emax / EC50: agonist; for Emax: max dose, read-out: 5-HT2A Arrestin % Act @ Max Dose; for EC50: PathHunter, read-out: 5-HT2A Arrestin EC50
T1 sequence (P28223 whole entry, the tested form may be a part): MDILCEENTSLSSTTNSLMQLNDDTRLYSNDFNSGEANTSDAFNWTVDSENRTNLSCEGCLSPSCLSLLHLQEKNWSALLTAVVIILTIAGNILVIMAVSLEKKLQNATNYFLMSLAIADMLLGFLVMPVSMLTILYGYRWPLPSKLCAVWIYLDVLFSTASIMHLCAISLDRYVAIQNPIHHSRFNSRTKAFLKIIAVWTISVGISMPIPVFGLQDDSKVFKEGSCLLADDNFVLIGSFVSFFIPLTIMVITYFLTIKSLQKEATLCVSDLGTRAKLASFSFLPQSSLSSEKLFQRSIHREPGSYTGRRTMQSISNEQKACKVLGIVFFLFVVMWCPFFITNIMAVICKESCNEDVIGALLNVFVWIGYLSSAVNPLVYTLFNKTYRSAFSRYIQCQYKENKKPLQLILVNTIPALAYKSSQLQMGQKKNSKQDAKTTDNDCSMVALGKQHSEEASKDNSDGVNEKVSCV
Outline: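 Agonist activity expressed as percent of maximal control ligand signal after vehicle subtraction, from chemiluminescence (RLU). Cells carry ProLink-tagged 5-HT2A plus β-arrestin fused to β-gal deletion mutant; ligand-driven arrestin binding restores β-galactosidase activity (PathHunter). Cells pre-incubated at 37° C.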

in vitro [2] = type: in vitro ADME, rat
From the text: RLM Stability Pooled RLM from male Sprague-Dawley rats (Xenotech R1000) were used.

in vitro [3] = type: in vitro ADME, human
5-HT2A receptor [4] = target: T1, 5-HT2A receptor; assay: cell-based; type: cell-based; design: expressed in transfected cells; host or cells: HEK293, stably transfected; details: for Emax: HEK293, agonist, HEK293, max dose, read-out: 5-HT2A % Act @ Max Dose
Outline: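 Stable HEK293 (5-HT2A, 5-HT2B) or CHO/Gα15 (5-HT1A) cells; Fluo-4 Direct, probenecid 2.5 mM final; 50 min dye load, 37 °C, 5% CO2; agonist-mode Ca2+ flux, FLIPR Tetra.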

5-HT2B receptor = target: T2, 5-HT2B receptor (Homo sapiens, UniProt P41595); assay: cell-based; type: cell-based; details: for Emax: HEK293, agonist, HEK293, max dose, read-out: 5-HT2B % Act @ Max Dose; for selectivity for 5-HT2A over 5-HT2B: functional, compared to closest N-methyl counterparts Int8, Int11, Int17
T2 construct: expressed in transfected cells; host or cells: HEK293, stably transfected
T2 sequence (P41595 whole entry): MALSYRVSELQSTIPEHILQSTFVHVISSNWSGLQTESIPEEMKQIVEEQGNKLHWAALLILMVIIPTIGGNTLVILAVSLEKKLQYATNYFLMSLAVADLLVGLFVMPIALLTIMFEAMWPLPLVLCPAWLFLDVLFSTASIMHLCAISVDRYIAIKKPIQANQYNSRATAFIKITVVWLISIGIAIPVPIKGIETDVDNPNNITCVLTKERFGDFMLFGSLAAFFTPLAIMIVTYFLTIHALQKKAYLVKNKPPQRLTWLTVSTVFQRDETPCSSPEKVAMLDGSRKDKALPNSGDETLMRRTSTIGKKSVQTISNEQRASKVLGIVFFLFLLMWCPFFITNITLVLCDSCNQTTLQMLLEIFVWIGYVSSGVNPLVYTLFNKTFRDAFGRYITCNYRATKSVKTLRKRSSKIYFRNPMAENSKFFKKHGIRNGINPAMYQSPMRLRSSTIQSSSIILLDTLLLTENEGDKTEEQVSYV
Outline: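 FLIPR Tetra fluorescence read-out of calcium flux after compound addition. Receptor-expressing stable lines were used (HEK293 for 2A/2B; CHO with Gα15 for 1A), dye-loaded with Fluo-4 Direct and 2.5 mM final probenecid, 50 min at 37 °C.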

in vitro [5] = type: in vitro ADME, mouse
From the text: MLM Stability Pooled MLM from male CD-1 mice (BIOIVT M00501) were used.

5-HT1A receptor = target: T3, 5-HT1A receptor (Homo sapiens, UniProt P08908); assay: cell-based; details: agonist, Ca2+ flux; for Emax: CHO, CHO cells with Gα15, max dose, read-out: 5-HT1A % Act @ Max Dose
T3 construct: expressed in transfected cells; host or cells: CHO cells, stably transfected
T3 sequence (P08908 1-422): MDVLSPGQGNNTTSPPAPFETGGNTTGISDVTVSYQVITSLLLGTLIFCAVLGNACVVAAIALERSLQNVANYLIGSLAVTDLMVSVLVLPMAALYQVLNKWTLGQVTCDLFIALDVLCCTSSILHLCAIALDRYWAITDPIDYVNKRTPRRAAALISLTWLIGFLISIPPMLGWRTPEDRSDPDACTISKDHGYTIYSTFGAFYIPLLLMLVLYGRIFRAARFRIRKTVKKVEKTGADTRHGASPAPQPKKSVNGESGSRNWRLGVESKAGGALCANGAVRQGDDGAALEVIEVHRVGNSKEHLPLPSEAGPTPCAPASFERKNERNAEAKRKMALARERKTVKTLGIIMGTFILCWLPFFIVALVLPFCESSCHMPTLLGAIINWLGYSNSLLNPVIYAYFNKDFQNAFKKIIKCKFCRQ
Outline: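 Receptor agonism was assessed as intracellular calcium mobilization in stably transfected cells, with CHO cells additionally carrying Gα15 for the 5-HT1A readout. Calcium was monitored with Fluo-4 Direct dye.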

5-HT1B receptor = target: T4, 5-HT1B receptor (Homo sapiens, UniProt P28222); assay: cAMP accumulation functional assay at 5-HT1B; type: cell-based; details: for Emax: max dose, read-out: 5-HT1B % Act @ Max Dose; for selectivity for 5-HT2A over 5-HT1B: functional, compared to the N-methyl prototype LSD
T4 construct: expressed in transfected cells
T4 sequence (P28222 whole entry): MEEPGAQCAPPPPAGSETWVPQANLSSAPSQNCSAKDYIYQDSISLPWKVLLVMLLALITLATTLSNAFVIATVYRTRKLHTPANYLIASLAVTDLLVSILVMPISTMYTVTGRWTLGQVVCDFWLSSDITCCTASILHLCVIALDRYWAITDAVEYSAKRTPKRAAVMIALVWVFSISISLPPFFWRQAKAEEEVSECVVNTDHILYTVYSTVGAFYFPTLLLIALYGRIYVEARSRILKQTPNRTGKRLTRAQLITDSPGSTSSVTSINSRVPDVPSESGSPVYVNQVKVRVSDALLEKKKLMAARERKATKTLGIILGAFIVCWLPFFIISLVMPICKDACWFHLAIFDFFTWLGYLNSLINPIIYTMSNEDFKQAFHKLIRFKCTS
Outline: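 Stably transfected human 5-HT1B cells were incubated 60 min at room temperature, after which detection reagent was applied for another 60 min at RT. The read-out was cAMP accumulation, used as a measure of agonist activity.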

[6] = RLM (male Sprague-Dawley) 0.50 mg/mL, NADPH 1 mM, 1 μM compound, pH 7.4, 37° C., 60 min
[7] = HLM 0.50 mg/mL, NADPH 1 mM, 1 μM compound, pH 7.4, 37° C., 60 min
[8] = MLM (male CD-1) 0.50 mg/mL, NADPH 1 mM, 1 μM compound, pH 7.4, 37° C., 60 min

SMILES	Emax (5-HT2A receptor [1])	5-HT2A arrestin agonist class (5-HT2A receptor [1])	stability in RLM (in vitro [2])	half-life (t1/2) (in vitro [2]; [6])	stability in HLM (in vitro [3])	half-life (t1/2) (in vitro [3]; [7])	Emax (5-HT2A receptor [4]; Ca2+ flux)	Emax (5-HT2B receptor; Ca2+ flux)	stability in MLM (in vitro [5])	half-life (t1/2) (in vitro [5]; [8])	Emax (5-HT1A receptor)	Emax (5-HT1B receptor; agonist, cAMP accumulation)	selectivity for 5-HT2A over 5-HT1B (5-HT1B receptor)	Intrinsic clearance (Clint) (in vitro [2]; [6])	Intrinsic clearance (Clint) (in vitro [3]; [7])	Intrinsic clearance (Clint) (in vitro [5]; [8])	EC50 (5-HT2A receptor [1])	other results
CCN(CC)C(=O)[C@@H]1C=C2c3cccc4[nH]cc(c34)C[C@H]2N(CCCF)C1 [Compound 2, (6aR,9R)—N,N-diethyl-7-(3-fluoropropyl)-4,6,6a,7,8,9-hexahydroindolo[4,3-fg]quinoline-9-carboxamide]	115%	full agonists	much lower stability (higher clearance)	11.972 min	much lower stability (higher clearance)	19.061 min	97.8%	101%	much lower stability (higher clearance)	2.666 min	92.4%	90%	greater selectivity for 5-HT2A over 5-HT1B	–	–	–	–	–
CCCN1C[C@H](C(=O)N[C@H](C)CC)C=C2c3cccc4[nH]cc(c34)C[C@H]21 [Compound 3, (6aR,9R)—N—((R)-sec-butyl)-7-propyl-4,6,6a,7,8,9-hexahydroindolo[4,3-fg]quinoline-9-carboxamide]	110%	full agonists	much lower stability (higher clearance)	4.4 min	much lower stability (higher clearance)	4.2 min	103%	94.1%	much lower stability (higher clearance)	1.6 min	108%	98.7%	greater selectivity for 5-HT2A over 5-HT1B	–	–	–	–	selectivity for 5-HT2A over adrenergic and dopamine receptors (5-HT2A receptor [4]; versus Alpha1A, Alpha2A, D1, D2): exceptional selectivity; selectivity for 5-HT2A over 5-HT2B (5-HT2B receptor): more selective for 5-HT2A over 5-HT2B
CCCN1C[C@H](C(=O)N2[C@@H](C)C[C@@H]2C)C=C2c3cccc4[nH]cc(c34)C[C@H]21 [Compound 4, ((2S,4S)-2,4-dimethylazetidin-1-yl)((6aR,9R)-7-propyl-4,6,6a,7,8,9-hexahydroindolo[4,3-fg]quinolin-9-yl)methanone]	117%	full agonists	much lower stability (higher clearance)	12.8 min	much lower stability (higher clearance)	10.6 min	97.6%	87.5%	much lower stability (higher clearance)	0.8 min	123%	96%	greater selectivity for 5-HT2A over 5-HT1B	–	–	–	–	selectivity for 5-HT2A over 5-HT2B (5-HT2B receptor): more selective for 5-HT2A over 5-HT2B
CCCN1C[C@H](C(=O)NC(CC)CC)C=C2c3cccc4[nH]cc(c34)C[C@H]21 [Compound 6, (6aR,9R)—N-(pentan-3-yl)-7-propyl-4,6,6a,7,8,9-hexahydroindolo[4,3-fg]quinoline-9-carboxamide]	103%	full agonists	much lower stability (higher clearance)	1.655 min	much lower stability (higher clearance)	1.607 min	94.6%	92.9%	much lower stability (higher clearance)	0.6 min	102%	94.6%	greater selectivity for 5-HT2A over 5-HT1B	–	–	–	–	–
CCN(CC)C(=O)[C@@H]1C=C2c3cccc4[nH]cc(c34)C[C@H]2N(Cc2ccccc2OC)C1 [Compound 10, (6aR,9R)—N,N-diethyl-7-(2-methoxybenzyl)-4,6,6a,7,8,9-hexahydroindolo[4,3-fg]quinoline-9-carboxamide]	47.1%	–	much lower stability (higher clearance)	3.4 min	much lower stability (higher clearance)	7.3 min	49.4%	2%	much lower stability (higher clearance)	1 min	53%	87.3%	–	407.4 µL/min/mg	190.3 µL/min/mg	1396.8 µL/min/mg	–	–
CCN(CC)C(=O)[C@@H]1C=C2c3cccc4[nH]cc(c34)C[C@H]2N(Cc2cccc(OC)c2)C1 [Compound 18, (6aR,9R)—N,N-diethyl-7-(3-methoxybenzyl)-4,6,6a,7,8,9-hexahydroindolo[4,3-fg]quinoline-9-carboxamide]	89.6%	–	–	5.3 min	–	13.6 min	61.1%	4.69%	–	2.6 min	28.9%	83.3%	–	262.8 µL/min/mg	101.7 µL/min/mg	523.7 µL/min/mg	0.00427 µM	–
CCN(CC)C(=O)[C@@H]1C=C2c3cccc4[nH]cc(c34)C[C@H]2N(Cc2ccc(OC)cc2)C1 [Compound 19, (6aR,9R)—N,N-diethyl-7-(4-methoxybenzyl)-4,6,6a,7,8,9-hexahydroindolo[4,3-fg]quinoline-9-carboxamide]	42.3%	–	–	10.0 min	–	16.8 min	70.5%	2.44%	–	7.2 min	-0.65%	71.1%	–	139.0 µL/min/mg	82.7 µL/min/mg	192.7 µL/min/mg	0.0135 µM	–
CCN(CC)C(=O)[C@@H]1C=C2c3cccc4[nH]cc(c34)C[C@H]2N(Cc2cccc(O)c2)C1 [Compound 62, (6aR,9R)—N,N-diethyl-7-(3-hydroxybenzyl)-4,6,6a,7,8,9-hexahydroindolo[4,3-fg]quinoline-9-carboxamide]	58.4%	–	–	–	–	–	81.5%	9.88%	–	–	22.7%	46.8%	–	–	–	–	0.0109 µM	microsomal CLint (in vitro [2]; rat, microsomes, RLM (male Sprague-Dawley) 0.50 mg/mL, NADPH 1 mM, 1 μM compound, pH 7.4, 37° C., 60 min, read-out: Intrinsic clearance (Clint)): 214 µL/min/mg; half-life (in vitro [2]; rat, microsomes, RLM (male Sprague-Dawley) 0.50 mg/mL, NADPH 1 mM, 1 μM compound, pH 7.4, 37° C., 60 min, read-out: half-life (t1/2)): 6.5 min; microsomal CLint (in vitro [3]; human, microsomes, HLM 0.50 mg/mL, NADPH 1 mM, 1 μM compound, pH 7.4, 37° C., 60 min, read-out: Intrinsic clearance (Clint)): 134 µL/min/mg; half-life (in vitro [3]; human, microsomes, HLM 0.50 mg/mL, NADPH 1 mM, 1 μM compound, pH 7.4, 37° C., 60 min, read-out: half-life (t1/2)): 10.3 min; EC50 (5-HT2A receptor [4]; agonist, Ca2+ flux, HEK293): 0.907 µM; EC50 (5-HT2B receptor; agonist, Ca2+ flux, HEK293): > 100 µM; microsomal CLint (in vitro [5]; mouse, microsomes, MLM (male CD-1) 0.50 mg/mL, NADPH 1 mM, 1 μM compound, pH 7.4, 37° C., 60 min, read-out: Intrinsic clearance (Clint)): 244 µL/min/mg; half-life (in vitro [5]; mouse, microsomes, MLM (male CD-1) 0.50 mg/mL, NADPH 1 mM, 1 μM compound, pH 7.4, 37° C., 60 min, read-out: half-life (t1/2)): 5.7 min; EC50 (5-HT1A receptor; CHO cells with Gα15): 12.6 µM; EC50 (5-HT1B receptor; agonist, cAMP accumulation): > 10 µM
